In patent US20250295606A1, “BIOSOLUBLE POLYMER OR PARTICLE FOR DELIVERY OF AN ACTIVE AGENT AND A METHOD FOR THE PRODUCTION” (Tijani Holding B.V., priority 2021, published 2025):

Key:
pig = system: pig
Excerpt: For sublingual (s.l.) treatment it is necessary to anesthetize the animals as to allow the application of the insulin complexes onto the sublingual mucosa, but long-term anesthesia is undesirable as it may affect insulin/glucose metabolism.

[1] = system: diabetic Göttingen minipigs; assay: Sublingual SLIM particles vs s.c. insulin, blood glucose in diabetic Göttingen minipigs; format: in vivo; details: Minipig 2, different days; SLIM-AF5 15 IU sublingual, RHI 10 IU subcutaneous; 2H30, after first 10 min
Excerpt: Testing the sublingual application of SLIM particles loaded with insulin in normoglycemic and STZ diabetic […] in a chronic in vivo study.
The purpose of this chronic, large animal in vivo study was to test the effective penetration of insulin containing particles through the sublingual mucosa, compare the effect with the subcutaneously applied human recombinant, measure the blood glucose changes and analyses the plasma insulin levels. Domestic pigs were also included in the study to compare the glucose lowering effect of insulin-loaded particles in the Göttingen minipigs and domestic pigs. […]
In this study, we first recorded the effect of s.c. application of human recombinant insulin as reference compounds and s.c. and s.l. applications of micro-compounds. […] The glucose levels of the pigs were followed and monitored for at least 3 days. […]
Corresponding to Example 20, the efficacy of SLIM particles was compared to subcutaneous injection of commercial recombinant human insulin in the same diabetic Göttingen minipig (Minipig 2) on different days. First day the animal received SLIM-AF5 (AF, 15 IU) particles sublingually and the second day was administered Recombinant Human Insulin (RHI, 10 IU) subcutaneously and the BG levels were monitored for 2H30 and compared (FIG. 22).

[2] = Plasma insulin level in diabetic Göttingen minipigs; format: in vivo; details: diabetic Göttingen minipig, subcutaneous injection
Excerpt: The purpose of this chronic, large animal in vivo study was to test the effective penetration of insulin containing particles through the sublingual mucosa, compare the effect with the subcutaneously applied human recombinant, measure the blood glucose changes and analyses the plasma insulin levels. Domestic pigs were also included in the study to compare the glucose lowering effect of insulin-loaded particles in the Göttingen minipigs and domestic pigs. The test compounds were applied s.l. and s.c. to the pigs being under the anesthetic propofol (Amnesia).
On the first day of acclimatization a central venous catheter was installed (Certofix®Mono B-Braun V430) for each domestic pig and Göttingen minipig. The pigs were fasted overnight before the day of operation, but supplied with water ad libitum. The animals were pre-anesthetized intramuscularly with Calypsol/Xilazine (2/1.8 mL, based on body weight) injections in the stalls to avoid stress, and were transported to the operating room. The anesthesia was maintained using isoflurane inhalation narcosis (2-2.5%) with oxygen. […]. The venous catheters were introduced by aseptic technique into the left external jugular vein. The end of the catheter was pulled subcutaneously to the back part of the head between the ears, and fixed by sutures, in two layers. […]

Compound | time until the jaw was relaxed (pig; 5 mg/kg, 20 mg/mL i.v.) [s] | time until the pig was laying down (pig; 5 mg/kg, 20 mg/mL i.v.) [s] | blood glucose measurements under anesthesia (pig; 20 minutes before, then 5, 10, 15 and 30 minutes after anesthesia) | BG level course [1] | maxima of plasma insulin ([2]; 2 IU) | maxima of plasma insulin ([2]; 10 IU)
CC(C)c1cccc(C(C)C)c1O [Propofol] | 60 | 30 | in the normal range |  |  | 
recombinant human insulin: commercial recombinant human insulin, subcutaneous reference |  |  |  | continue to decline linearly with the time but with a slightly different speed and slop | only one insulin maximum in plasma | only one maximum peak of plasma insulin
